# Results as given in PubChem BioAssay (NCI).
#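 Assay format: 96-well plates, 48-hour exposure. TGI is the concentration that stops growth completely.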
# Columns and labels:
# Assay in all cases: growth of human tumour cells (NCI), 48 h
# [1] = system: A549 NSCLC
# [2] = system: SN12C renal
# [3] = system: U251 CNS
# [4] = system: NCI-H226 lung
# [5] = system: EKVX NSCLC
# [6] = system: MDA-MB-435
# [7] = system: HOP-92 NSCLC
# [8] = system: SK-MEL-5 melanoma
# [9] = system: UACC-257 melanoma
# [10] = system: SNB-75 CNS
# [11] = system: MCF7 breast
# [12] = system: DU-145 prostate
# [13] = system: OVCAR-8 ovarian
# [14] = system: HL-60(TB) leukemia
# [15] = system: NCI/ADR-RES ovarian
# [16] = system: TK-10 renal
# [17] = system: COLO 205 colon
# [18] = system: ACHN renal
# [19] = system: KM12 colon
# [20] = system: HCC-2998 colon
# [21] = system: SF-295 CNS
# [22] = system: CAKI-1 renal
# [23] = system: MALME-3M melanoma
# [24] = system: M14 melanoma
# [25] = system: HCT-15 colon
# [26] = system: RPMI-8226 leukemia
# [27] = system: UACC-62 melanoma
# [28] = system: HS 578T breast
# [29] = system: SNB-19 CNS
# [30] = system: IGROV1 ovarian
# [31] = system: HT29 colon
# [32] = system: UO-31 renal
# [33] = system: LOX IMVI melanoma
# [34] = system: SF-268 CNS
# [35] = system: SK-MEL-2 melanoma
# [36] = system: HOP-62 NSCLC
# [37] = system: NCI-H460 lung
# [38] = system: OVCAR-4 ovarian
# [39] = system: RXF 393 renal
# [40] = system: K-562 leukemia
# [41] = system: MDA-MB-231 breast
# [42] = system: HCT-116 colon
# [43] = system: SK-OV-3 ovarian
# [44] = system: 786-0 renal
# [45] = system: SW-620 colon
# [46] = system: OVCAR-5 ovarian
# [47] = system: CCRF-CEM leukemia
# [48] = system: A498 renal
# [49] = system: MDA-N
# [50] = system: SK-MEL-28 melanoma
# [51] = system: MOLT-4 leukemia
# [52] = system: T-47D breast
# [53] = system: BT-549 breast
# [54] = system: PC-3 prostate
# [55] = system: NCI-H23 lung
# [56] = system: OVCAR-3 ovarian
# [57] = system: NCI-H522 lung
# [58] = system: SF-539 CNS
structure (smiles),measurement,setting,value
O=C1/C(=C/c2ccc(O)c(CN3CCCCC3)c2)CCC/C1=C\c1ccc(O)c(CN2CCCCC2)c1,TGI,[1],53.5 µM
same,TGI,[2],59 µM
same,TGI,[3],20.5 µM
same,TGI,[4],48.2 µM
same,TGI,[5],25.2 µM
same,TGI,[6],18.2 µM
same,TGI,[7],12.3 µM
same,TGI,[8],27.1 µM
same,TGI,[9],23.9 µM
same,TGI,[10],12.4 µM
same,TGI,[11],15.5 µM
same,TGI,[12],17.6 µM
same,TGI,[13],29.8 µM
same,TGI,[14],11.5 µM
same,TGI,[15],9.82 µM
same,TGI,[16],21.1 µM
same,TGI,[17],10.4 µM
same,TGI,[18],19.5 µM
same,TGI,[19],14.8 µM
same,TGI,[20],20.6 µM
same,TGI,[21],16.3 µM
same,TGI,[22],34.5 µM
same,TGI,[23],28.7 µM
same,TGI,[24],44.5 µM
same,TGI,[25],29.5 µM
same,TGI,[26],35.8 µM
same,TGI,[27],38.2 µM
same,TGI,[28],83.8 µM
same,TGI,[29],17.7 µM
same,TGI,[30],29.4 µM
same,TGI,[31],3.7 µM
same,TGI,[32],22.5 µM
same,TGI,[33],25.1 µM
same,TGI,[34],20.8 µM
same,TGI,[35],50.6 µM
same,TGI,[36],26.3 µM
same,TGI,[37],13.6 µM
same,TGI,[38],33.2 µM
same,TGI,[39],15.5 µM
same,TGI,[40],42.3 µM
same,TGI,[41],17.4 µM
same,TGI,[42],14.7 µM
same,TGI,[43],22.4 µM
same,TGI,[44],17.5 µM
same,TGI,[45],29.1 µM
same,TGI,[46],> 100 µM
same,TGI,[47],17.7 µM
same,TGI,[48],28.9 µM
same,TGI,[49],20.6 µM
same,TGI,[50],31.3 µM
same,TGI,[51],27 µM
same,TGI,[52],35.8 µM
same,TGI,[53],31.3 µM
same,TGI,[54],44.6 µM
same,TGI,[55],20.2 µM
same,TGI,[56],> 100 µM
Cc1csc(-n2nc(C)cc2C)n1,TGI,[1],> 100 µM
same,TGI,[2],> 100 µM
same,TGI,[3],> 100 µM
same,TGI,[4],> 100 µM
same,TGI,[5],> 100 µM
same,TGI,[6],> 100 µM
same,TGI,[8],> 100 µM
same,TGI,[9],> 100 µM
same,TGI,[10],> 100 µM
same,TGI,[11],> 100 µM
same,TGI,[12],> 100 µM
same,TGI,[13],> 100 µM
same,TGI,[14],> 100 µM
same,TGI,[15],> 100 µM
same,TGI,[16],> 100 µM
same,TGI,[17],> 100 µM
same,TGI,[18],> 100 µM
same,TGI,[19],> 100 µM
same,TGI,[20],> 100 µM
same,TGI,[21],> 100 µM
same,TGI,[22],> 100 µM
same,TGI,[23],> 100 µM
same,TGI,[24],> 100 µM
same,TGI,[25],> 100 µM
same,TGI,[26],> 100 µM
same,TGI,[27],> 100 µM
same,TGI,[28],> 100 µM
same,TGI,[57],> 100 µM
same,TGI,[29],> 100 µM
same,TGI,[30],> 100 µM
same,TGI,[31],> 100 µM
same,TGI,[32],> 100 µM
same,TGI,[33],> 100 µM
same,TGI,[34],> 100 µM
same,TGI,[35],> 100 µM
same,TGI,[36],> 100 µM
same,TGI,[37],> 100 µM
same,TGI,[38],> 100 µM
same,TGI,[39],> 100 µM
same,TGI,[40],> 100 µM
same,TGI,[58],> 100 µM
same,TGI,[41],> 100 µM
same,TGI,[42],> 100 µM
same,TGI,[43],> 100 µM
same,TGI,[44],> 100 µM
same,TGI,[45],> 100 µM
same,TGI,[46],> 100 µM
same,TGI,[47],> 100 µM
same,TGI,[48],> 100 µM
same,TGI,[49],> 100 µM
same,TGI,[50],> 100 µM
same,TGI,[52],> 100 µM
same,TGI,[53],> 100 µM
same,TGI,[54],> 100 µM
same,TGI,[55],> 100 µM
same,TGI,[56],> 100 µM
